Measured values as given in ChEMBL document CHEMBL3400143, “Discovery and hit-to-lead optimization of 2,6-diaminopyrimidine inhibitors of interleukin-1 receptor-associated kinase 4” (Bioorg Med Chem Lett, 2015).
Calls of active or inactive are those of the source. The rule behind the calls is not given here.

Key:
[1] = target: T1, Interleukin-1 receptor-associated kinase 4 (Homo sapiens, UniProt Q9NWZ3); assay: Inhibition of N-terminal GST tagged human recombinant full-length IRAK4 expressed in Sf9 insect cells assessed as reduction in substrate phosphorylation using RP7030 peptide substrate and ATP incubated for 30 mins fluorescence polarization assay
T1 sequence (Q9NWZ3 whole entry): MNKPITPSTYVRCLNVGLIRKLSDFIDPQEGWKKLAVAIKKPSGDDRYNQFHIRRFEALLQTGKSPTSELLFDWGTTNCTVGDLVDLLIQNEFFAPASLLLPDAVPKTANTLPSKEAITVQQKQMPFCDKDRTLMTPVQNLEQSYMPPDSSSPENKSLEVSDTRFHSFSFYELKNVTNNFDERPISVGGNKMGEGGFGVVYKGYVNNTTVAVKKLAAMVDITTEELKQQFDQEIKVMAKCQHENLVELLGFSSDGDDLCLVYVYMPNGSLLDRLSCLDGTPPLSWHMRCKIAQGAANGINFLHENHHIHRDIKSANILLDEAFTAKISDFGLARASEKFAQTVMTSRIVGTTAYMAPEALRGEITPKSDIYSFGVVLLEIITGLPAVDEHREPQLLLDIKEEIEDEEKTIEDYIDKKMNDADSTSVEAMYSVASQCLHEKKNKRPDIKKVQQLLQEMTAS

[2] = target: Dual specificity protein kinase CLK4 (Homo sapiens) (UniProt Q9HAZ1); assay: Inhibition of CLK4 (unknown origin)
[3] = target: Receptor-type tyrosine-protein kinase FLT3 (Homo sapiens) (UniProt P36888); assay: Inhibition of FLT3 (unknown origin)
[4] = target: Mitogen-activated protein kinase kinase kinase kinase 4 (Homo sapiens) (UniProt O95819); assay: Inhibition of MAP4K4 (unknown origin)
[5] = target: High affinity nerve growth factor receptor (Homo sapiens) (UniProt P04629); assay: Inhibition of TRKA (unknown origin)
[6] = target: BDNF/NT-3 growth factors receptor (Homo sapiens) (UniProt Q16620); assay: Inhibition of TRKB (unknown origin)
[7] = target: NT-3 growth factor receptor (Homo sapiens) (UniProt Q16288); assay: Inhibition of TRKC (unknown origin)
NT-3 growth factor receptor (Homo sapiens), sequence (Q16288 32-839 limits assumed): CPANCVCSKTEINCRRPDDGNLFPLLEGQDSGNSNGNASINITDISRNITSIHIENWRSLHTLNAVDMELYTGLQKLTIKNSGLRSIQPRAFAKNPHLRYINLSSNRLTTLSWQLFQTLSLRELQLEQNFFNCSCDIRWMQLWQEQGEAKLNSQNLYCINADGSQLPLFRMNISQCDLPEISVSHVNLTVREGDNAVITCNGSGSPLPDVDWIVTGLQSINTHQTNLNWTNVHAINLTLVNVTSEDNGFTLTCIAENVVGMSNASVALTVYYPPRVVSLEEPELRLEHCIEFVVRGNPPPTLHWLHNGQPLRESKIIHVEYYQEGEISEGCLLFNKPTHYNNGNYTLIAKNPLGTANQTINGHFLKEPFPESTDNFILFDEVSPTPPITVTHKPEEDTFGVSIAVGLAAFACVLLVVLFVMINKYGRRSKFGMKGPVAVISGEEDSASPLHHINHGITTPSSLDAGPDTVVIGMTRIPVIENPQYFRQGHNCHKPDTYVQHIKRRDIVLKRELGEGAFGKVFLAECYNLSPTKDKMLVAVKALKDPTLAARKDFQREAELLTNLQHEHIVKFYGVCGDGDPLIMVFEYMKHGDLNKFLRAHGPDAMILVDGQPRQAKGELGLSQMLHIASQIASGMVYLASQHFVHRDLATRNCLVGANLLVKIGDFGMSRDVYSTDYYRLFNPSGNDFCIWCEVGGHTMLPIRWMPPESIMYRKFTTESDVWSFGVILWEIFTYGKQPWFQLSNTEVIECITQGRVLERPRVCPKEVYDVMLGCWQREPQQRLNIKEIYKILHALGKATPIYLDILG

High affinity nerve growth factor receptor (Homo sapiens), sequence (P04629 33-796 limits assumed): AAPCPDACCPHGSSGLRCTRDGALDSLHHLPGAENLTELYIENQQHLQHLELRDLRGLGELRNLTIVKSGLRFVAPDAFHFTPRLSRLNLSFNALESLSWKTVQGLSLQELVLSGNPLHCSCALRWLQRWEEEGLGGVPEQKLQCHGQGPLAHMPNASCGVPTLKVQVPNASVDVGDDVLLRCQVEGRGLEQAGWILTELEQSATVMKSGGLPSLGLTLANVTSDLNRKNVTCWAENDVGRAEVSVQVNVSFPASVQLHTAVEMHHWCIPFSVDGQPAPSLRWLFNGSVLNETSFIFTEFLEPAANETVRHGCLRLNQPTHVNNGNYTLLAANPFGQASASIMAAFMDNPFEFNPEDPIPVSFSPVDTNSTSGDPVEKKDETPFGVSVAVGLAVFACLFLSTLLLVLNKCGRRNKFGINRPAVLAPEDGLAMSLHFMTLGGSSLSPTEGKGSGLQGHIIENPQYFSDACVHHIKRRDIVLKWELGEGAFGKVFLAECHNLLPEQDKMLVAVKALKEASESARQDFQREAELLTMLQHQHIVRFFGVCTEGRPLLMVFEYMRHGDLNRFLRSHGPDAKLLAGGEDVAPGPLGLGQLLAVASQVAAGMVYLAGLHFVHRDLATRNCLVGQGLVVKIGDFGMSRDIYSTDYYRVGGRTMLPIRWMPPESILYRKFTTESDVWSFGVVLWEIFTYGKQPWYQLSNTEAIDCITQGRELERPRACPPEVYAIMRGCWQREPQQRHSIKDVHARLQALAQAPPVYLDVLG
Receptor-type tyrosine-protein kinase FLT3 (Homo sapiens), sequence (P36888 whole entry): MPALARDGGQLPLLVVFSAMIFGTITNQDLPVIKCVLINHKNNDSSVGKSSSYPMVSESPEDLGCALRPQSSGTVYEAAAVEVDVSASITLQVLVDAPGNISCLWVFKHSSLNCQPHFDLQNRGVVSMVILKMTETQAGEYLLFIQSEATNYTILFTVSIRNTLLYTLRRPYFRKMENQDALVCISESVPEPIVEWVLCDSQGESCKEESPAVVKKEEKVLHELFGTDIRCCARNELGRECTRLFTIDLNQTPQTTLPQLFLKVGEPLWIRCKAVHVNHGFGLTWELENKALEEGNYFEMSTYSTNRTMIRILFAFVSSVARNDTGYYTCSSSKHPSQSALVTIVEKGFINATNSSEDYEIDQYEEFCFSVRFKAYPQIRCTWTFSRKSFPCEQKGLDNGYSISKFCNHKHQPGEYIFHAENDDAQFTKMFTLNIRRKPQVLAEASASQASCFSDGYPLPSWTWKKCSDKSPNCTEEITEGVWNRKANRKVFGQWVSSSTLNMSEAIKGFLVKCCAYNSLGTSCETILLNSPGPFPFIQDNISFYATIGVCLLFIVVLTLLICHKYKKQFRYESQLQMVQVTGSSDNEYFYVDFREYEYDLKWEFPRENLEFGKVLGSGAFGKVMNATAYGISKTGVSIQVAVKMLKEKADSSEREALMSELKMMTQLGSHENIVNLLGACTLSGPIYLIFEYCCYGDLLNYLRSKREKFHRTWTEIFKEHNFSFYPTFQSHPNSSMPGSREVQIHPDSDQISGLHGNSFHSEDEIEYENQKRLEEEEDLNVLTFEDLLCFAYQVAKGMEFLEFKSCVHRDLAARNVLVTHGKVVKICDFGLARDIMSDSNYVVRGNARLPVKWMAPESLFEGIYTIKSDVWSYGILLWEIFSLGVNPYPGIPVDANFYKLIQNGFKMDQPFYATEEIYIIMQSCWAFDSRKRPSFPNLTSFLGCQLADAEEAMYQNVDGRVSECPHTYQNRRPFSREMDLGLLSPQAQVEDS
BDNF/NT-3 growth factors receptor (Homo sapiens), sequence (Q16620 32-822 limits assumed): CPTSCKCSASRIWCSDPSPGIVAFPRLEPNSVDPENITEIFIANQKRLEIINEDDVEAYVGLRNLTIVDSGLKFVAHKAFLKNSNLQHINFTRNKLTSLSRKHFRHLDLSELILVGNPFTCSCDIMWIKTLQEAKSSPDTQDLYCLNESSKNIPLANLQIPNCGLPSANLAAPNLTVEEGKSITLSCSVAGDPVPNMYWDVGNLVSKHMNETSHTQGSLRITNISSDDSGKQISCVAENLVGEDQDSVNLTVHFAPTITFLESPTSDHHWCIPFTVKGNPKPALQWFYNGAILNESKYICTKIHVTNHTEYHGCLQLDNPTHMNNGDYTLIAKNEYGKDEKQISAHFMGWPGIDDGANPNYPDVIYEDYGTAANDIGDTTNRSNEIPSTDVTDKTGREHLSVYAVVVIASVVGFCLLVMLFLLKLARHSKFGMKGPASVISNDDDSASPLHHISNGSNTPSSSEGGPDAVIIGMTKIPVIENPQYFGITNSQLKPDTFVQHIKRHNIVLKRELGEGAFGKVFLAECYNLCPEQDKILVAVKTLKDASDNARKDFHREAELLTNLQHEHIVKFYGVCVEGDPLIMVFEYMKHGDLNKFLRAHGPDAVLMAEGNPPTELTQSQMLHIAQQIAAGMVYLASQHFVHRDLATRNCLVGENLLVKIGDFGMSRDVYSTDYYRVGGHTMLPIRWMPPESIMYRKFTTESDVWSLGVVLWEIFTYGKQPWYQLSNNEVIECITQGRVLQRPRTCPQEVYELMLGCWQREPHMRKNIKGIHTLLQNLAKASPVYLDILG
Mitogen-activated protein kinase kinase kinase kinase 4 (Homo sapiens), sequence (O95819 2-1239 limits assumed): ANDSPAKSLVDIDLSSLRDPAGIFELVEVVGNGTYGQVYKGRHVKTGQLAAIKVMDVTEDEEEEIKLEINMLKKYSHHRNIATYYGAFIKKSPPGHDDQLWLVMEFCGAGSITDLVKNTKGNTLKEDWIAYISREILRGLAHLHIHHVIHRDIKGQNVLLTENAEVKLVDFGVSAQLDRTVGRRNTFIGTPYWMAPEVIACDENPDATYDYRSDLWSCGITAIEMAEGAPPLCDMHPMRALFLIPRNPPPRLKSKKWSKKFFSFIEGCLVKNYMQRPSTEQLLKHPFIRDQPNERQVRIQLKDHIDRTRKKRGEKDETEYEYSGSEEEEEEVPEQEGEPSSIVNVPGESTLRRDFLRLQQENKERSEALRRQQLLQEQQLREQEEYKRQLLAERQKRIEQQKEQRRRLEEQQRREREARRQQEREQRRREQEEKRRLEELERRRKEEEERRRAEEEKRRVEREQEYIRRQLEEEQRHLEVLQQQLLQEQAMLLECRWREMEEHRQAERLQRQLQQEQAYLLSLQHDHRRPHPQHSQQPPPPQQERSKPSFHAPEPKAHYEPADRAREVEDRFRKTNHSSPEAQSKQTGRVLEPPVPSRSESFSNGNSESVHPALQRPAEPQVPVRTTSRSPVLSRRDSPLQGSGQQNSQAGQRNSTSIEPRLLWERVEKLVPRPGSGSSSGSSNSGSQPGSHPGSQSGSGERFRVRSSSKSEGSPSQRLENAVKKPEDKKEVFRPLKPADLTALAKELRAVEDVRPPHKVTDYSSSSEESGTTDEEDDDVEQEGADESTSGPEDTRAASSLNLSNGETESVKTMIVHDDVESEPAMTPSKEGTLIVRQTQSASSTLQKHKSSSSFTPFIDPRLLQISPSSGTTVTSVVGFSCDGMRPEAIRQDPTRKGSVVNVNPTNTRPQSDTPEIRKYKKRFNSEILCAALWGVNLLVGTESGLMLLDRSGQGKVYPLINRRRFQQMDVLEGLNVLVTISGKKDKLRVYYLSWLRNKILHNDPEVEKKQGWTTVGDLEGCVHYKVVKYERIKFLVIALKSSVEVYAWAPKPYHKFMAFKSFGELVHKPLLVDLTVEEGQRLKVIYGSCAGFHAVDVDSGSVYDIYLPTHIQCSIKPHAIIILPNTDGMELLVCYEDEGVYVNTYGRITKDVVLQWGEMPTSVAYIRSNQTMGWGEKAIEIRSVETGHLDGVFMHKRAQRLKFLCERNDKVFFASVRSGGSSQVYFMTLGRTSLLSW
Dual specificity protein kinase CLK4 (Homo sapiens), sequence (Q9HAZ1 whole entry, looked up): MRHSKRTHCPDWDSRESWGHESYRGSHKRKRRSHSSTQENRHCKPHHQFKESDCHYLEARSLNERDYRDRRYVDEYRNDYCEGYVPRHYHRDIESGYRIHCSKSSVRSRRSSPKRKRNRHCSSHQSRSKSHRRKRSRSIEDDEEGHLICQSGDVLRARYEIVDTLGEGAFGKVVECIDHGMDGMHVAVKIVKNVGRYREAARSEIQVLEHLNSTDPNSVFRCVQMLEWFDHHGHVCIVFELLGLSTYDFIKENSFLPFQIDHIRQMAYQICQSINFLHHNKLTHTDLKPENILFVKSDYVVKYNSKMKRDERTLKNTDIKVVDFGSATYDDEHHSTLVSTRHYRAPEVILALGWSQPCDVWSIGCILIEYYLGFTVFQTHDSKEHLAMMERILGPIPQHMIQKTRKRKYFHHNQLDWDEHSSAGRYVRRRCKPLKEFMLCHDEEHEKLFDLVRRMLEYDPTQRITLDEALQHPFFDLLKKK

SMILES | IC50 [1] [nM] | inhibition [2] | inhibition [3] | inhibition [4] | inhibition [5] | inhibition [6] | inhibition [7]
CCCNc1nc(C)c(-c2nc3ccccc3s2)c(N[C@H]2CC[C@@H](CO)C2)n1 (racemic) | > 20000 | Active | Active | Active | Active | Active | Active
Nc1ncc(-c2nccs2)c(N[C@@H]2C[C@H](CO)[C@@H](O)[C@H]2O)n1 | 4700 | Active | Active | Active | Active | Active | Active
COc1nc(N)nc(N[C@@H]2C[C@H](CO)[C@@H](O)[C@H]2O)c1-c1nc2ccccc2s1 | > 20000 | Active | Active | Active | Active | Active | Active
Nc1ncc(-c2cnc3ccccn23)c(N[C@@H]2C[C@H](CO)[C@@H](O)[C@H]2O)n1 | 1140 | Active | Active | Active | Active | Active | Active
Nc1nc(N)c(-c2nc3ccccc3s2)c(N[C@@H]2C[C@H](CO)[C@@H](O)[C@H]2O)n1 | 5190 | Active | Active | Active | Active | Active | Active
Nc1ncc(-c2ncc(-c3ccccc3)s2)c(N[C@@H]2C[C@H](CO)[C@@H](O)[C@H]2O)n1 | > 20000 | Active | Active | Active | Active | Active | Active
Nc1nc(N[C@@H]2C[C@H](CO)[C@@H](O)[C@H]2O)c(-c2nc3ccccc3s2)c(C2CC2)n1 | > 20000 | Active | Active | Active | Active | Active | Active
CCc1nc(N)nc(N[C@@H]2C[C@H](CO)[C@@H](O)[C@H]2O)c1-c1nc2ccccc2s1 | 6850 | Active | Active | Active | Active | Active | Active
Nc1ncc(-c2ccccc2)c(N[C@@H]2C[C@H](CO)[C@@H](O)[C@H]2O)n1 | > 20000 | Active | Active | Active | Active | Active | Active
Nc1ncc(-c2nc3cccnc3s2)c(N[C@@H]2C[C@H](CO)[C@@H](O)[C@H]2O)n1 | 530 | Active | Active | Active | Active | Active | Active
N#Cc1nc(N)nc(N[C@@H]2C[C@H](CO)[C@@H](O)[C@H]2O)c1-c1nc2ccccc2s1 | > 20000 | Active | Active | Active | Active | Active | Active

The next lines start with the values.

IC50 [1] [nM] | inhibition [2] | inhibition [3] | inhibition [4] | inhibition [5] | inhibition [6] | inhibition [7] | SMILES
1000 | Active | Active | Active | Active | Active | Active | Cc1cc(Nc2ncc(-c3nc4ccccc4s3)c(N[C@@H]3C[C@H](CO)[C@@H](O)[C@H]3O)n2)cc(C)n1
228 | Active | Active | Active | Active | Active | Active | COCCCNc1ncc(-c2nc3ccccc3s2)c(N[C@@H]2C[C@H](CO)[C@@H](O)[C@H]2O)n1
240 | Active | Active | Active | Active | Active | Active | Nc1ncc(-c2nc3ccccc3s2)c(N[C@@H]2C[C@H](CO)[C@@H](O)[C@H]2O)n1
3010 | Active | Active | Active | Active | Active | Active | OC[C@H]1C[C@@H](Nc2nc(NC3CCCCC3)ncc2-c2nc3ccccc3s2)[C@H](O)[C@@H]1O
6000 | Active | Active | Active | Active | Active | Active | OC[C@H]1C[C@@H](Nc2nc(Nc3cncnc3)ncc2-c2nc3ccccc3s2)[C@H](O)[C@@H]1O
240 | Active | Active | Active | Active | Active | Active | CCCNc1nc(C)c(-c2nc3ccccc3s2)c(N[C@@H]2C[C@H](CO)[C@@H](O)[C@H]2O)n1
170 | Active | Active | Active | Active | Active | Active | Nc1nc(Cl)c(-c2nc3ccccc3s2)c(N[C@@H]2C[C@H](CO)[C@@H](O)[C@H]2O)n1
1190 | Active | Active | Active | Active | Active | Active | CCCNc1ncc(-c2nc3ccccc3s2)c(N[C@@H]2C[C@H](CO)[C@@H](O)[C@H]2O)n1
1060 | Active | Active | Active | Active | Active | Active | Cc1nc(N)nc(N[C@@H]2C[C@H](CO)[C@@H](O)[C@H]2O)c1-c1nc2ccccc2s1
> 20000 | Active | Active | Active | Active | Active | Active | Cc1nc(NCC2CC2)nc(N[C@@H]2C[C@H](CO)[C@@H](O)[C@H]2O)c1-c1nc2ccccc2s1
300 | Active | Active | Active | Active | Active | Active | Cc1cc(Nc2ncc(-c3nc4ccncc4s3)c(N[C@@H]3C[C@H](CO)[C@@H](O)[C@H]3O)n2)cc(C)n1
333 | Active | Active | Active | Active | Active | Active | OC[C@H]1C[C@@H](Nc2nc(NCC3CC3)ncc2-c2nc3ccccc3s2)[C@H](O)[C@@H]1O
1080 | Active | Active | Active | Active | Active | Active | OC[C@H]1C[C@@H](Nc2nc(NC3CCOCC3)ncc2-c2nc3ccccc3s2)[C@H](O)[C@@H]1O
